Data reported in patent publication US4504580A, “Antibiotics produced by fermentation of a novel strain of Streptomyces hygroscopicus” (Bristol-Myers Company, priority 1983, dated 1985).
In brackets after ≈: the same amount, converted by molar mass. Read-outs that look alike come from different tables or passages of the source.

Key:
Format in all cases: cell-based
Escherichia coli A20107 = test: MIC, aminoglycoside-resistant E. coli A20107; conditions: Escherichia coli, A20107; Table 9; inactivating enzyme APH(3')-II; Mueller-Hinton agar; read-out: MIC
Description: (§1) The minimum inhibitory concentrations (MIC) of Bu-2659A, B, C, D and E were determined for a variety of gram-positive and gram-negative bacteria by the serial two-fold agar dilution method using the Steer's multi-inoculating apparatus. The inoculum was standardized as a 10^4 dilution of an overnight culture of the test organisms in Heart Infusion Broth (Difco). […] Reference antibiotics utilized in these tests included commercially available neomycin as well as its components, neomycins B and C [as used herein, the term "neomycin" means the commercial product containing neomycins B and C at an approximate ratio of 7:3], paromomycin [the commercial product containing >90% of paromomycin I and <10% of paromomycin II] and ribostamycin.

[1] = system: Pseudomonas aeruginosa D15; test: MIC by serial two-fold agar dilution, P. aeruginosa D15; conditions: Pseudomonas aeruginosa, D15
Description: as §1

Proteus mirabilis A9906 = test: MIC by serial two-fold agar dilution, P. mirabilis A9906; conditions: Proteus mirabilis, A9906
Description: as §1

Escherichia coli ML 1630 = test: MIC, aminoglycoside-resistant E. coli ML 1630; conditions: Escherichia coli, ML1630; Table 9; inactivating enzyme APH(3')-I; Mueller-Hinton agar; read-out: MIC
Description: as §1

[2] = system: Staphylococcus aureus A20239; test: MIC, aminoglycoside-resistant S. aureus A20239; conditions: Staphylococcus aureus, A20239; Table 9; inactivating enzyme APH(3')-I,II; Mueller-Hinton agar; read-out: MIC
Description: as §1

Proteus vulgaris A9436 = test: MIC by serial two-fold agar dilution, P. vulgaris A9436; conditions: Proteus vulgaris, A9436
Description: as §1

Escherichia coli NIHJ = test: MIC by serial two-fold agar dilution, E. coli NIHJ; conditions: Escherichia coli
Description: as §1

[3] = system: Klebsiella pneumoniae D11; test: MIC by serial two-fold agar dilution, K. pneumoniae D11; conditions: Klebsiella pneumoniae, D11
Description: as §1

Escherichia coli A20732 = test: MIC, aminoglycoside-resistant E. coli A20732; conditions: Escherichia coli, A20732; Table 9; inactivating enzyme ANT(2"); Mueller-Hinton agar; read-out: MIC
Description: as §1

[4] = system: Bacillus subtilis PCI 219; test: MIC by serial two-fold agar dilution, B. subtilis PCI 219; conditions: Bacillus subtilis, PCI219
Description: as §1

Micrococcus flavus D12 = test: MIC by serial two-fold agar dilution, M. flavus D12; conditions: Micrococcus flavus, D12
Description: as §1

[5] = system: Staphylococcus aureus D136; test: MIC by serial two-fold agar dilution, S. aureus D136; conditions: Staphylococcus aureus, D136
Description: as §1

[6] = system: Bacillus brevis IFO 12334; test: MIC, aminoglycoside-resistant B. brevis IFO 12334; conditions: Brevibacillus brevis, IFO12334; Table 9; inactivating enzyme ANT (4'); Mueller-Hinton agar; read-out: MIC
Description: as §1

[7] = system: Serratia marcescens A20019; test: MIC by serial two-fold agar dilution, S. marcescens A20019; conditions: Serratia marcescens, A20019
Description: as §1

Escherichia coli JR88 = test: MIC, aminoglycoside-resistant E. coli JR88; conditions: Escherichia coli, JR88
Description: as §1

Proteus morganii A9553 = test: MIC by serial two-fold agar dilution, P. morganii A9553; conditions: Morganella morganii, A9553
Description: as §1

[8] = system: Pseudomonas aeruginosa A9930; test: MIC by serial two-fold agar dilution, P. aeruginosa A9930; conditions: Pseudomonas aeruginosa, A9930
Description: as §1

[9] = system: Pseudomonas aeruginosa A20896; test: MIC, aminoglycoside-resistant P. aeruginosa A20896; conditions: Pseudomonas aeruginosa, A20896; Table 9; inactivating enzyme AAC(3)-II; Mueller-Hinton agar; read-out: MIC
Description: as §1

[10] = system: Escherichia coli JR66/W677; test: MIC, aminoglycoside-resistant E. coli JR66/W677; conditions: Escherichia coli, JR66/W677
Description: as §1

[11] = system: Escherichia coli NR79/W677; test: MIC, aminoglycoside-resistant E. coli NR79/W677; conditions: Escherichia coli, NR79/W677
Description: as §1

Proteus rettgeri A15167 = test: MIC by serial two-fold agar dilution, P. rettgeri A15167; conditions: Providencia rettgeri, A15167
Description: as §1

[12] = system: Pseudomonas aeruginosa A20601; test: MIC, aminoglycoside-resistant P. aeruginosa A20601; conditions: Pseudomonas aeruginosa, A20601; Table 9; inactivating enzymes AAC(3)-I, APH(3')-II; Mueller-Hinton agar; read-out: MIC
Description: as §1

[13] = system: Escherichia coli JR35/C600; test: MIC, aminoglycoside-resistant E. coli JR35/C600; conditions: Escherichia coli, JR35/C600
Description: as §1

[14] = system: Micrococcus luteus PCI 1001; test: MIC by serial two-fold agar dilution, M. luteus PCI 1001; conditions: Micrococcus luteus, PCI1001
Description: as §1

[15] = system: Staphylococcus aureus 209P; test: MIC by serial two-fold agar dilution, S. aureus 209P; conditions: Staphylococcus aureus, 209P
Description: as §1

Escherichia coli Juhl = test: MIC by serial two-fold agar dilution, E. coli Juhl; conditions: Escherichia coli
Description: as §1

Proteus mirabilis A9554 = test: MIC by serial two-fold agar dilution, P. mirabilis A9554; conditions: Proteus mirabilis, A9554
Description: as §1

[16] = system: Staphylococcus aureus Smith; test: MIC by serial two-fold agar dilution, S. aureus Smith; conditions: Staphylococcus aureus
Description: as §1

[17] = system: Enterobacter cloacae A20364; test: MIC, aminoglycoside-resistant E. cloacae A20364; conditions: Enterobacter cloacae, A20364; Table 9; inactivating enzyme APH(3')-I; Mueller-Hinton agar; read-out: MIC
Description: as §1

[18] = system: gram-positive and gram-negative bacteria; test: In vitro antibacterial spectra (MIC), overall comparison, Table 7; conditions: Table 7 organisms
Description: as §1

[19] = Table 7, Mueller-Hinton agar, read-out: MIC

Compound	MIC [1] [µg/mL]	MIC (Proteus mirabilis A9906) [µg/mL]	MIC (Proteus vulgaris A9436) [µg/mL]	MIC (Escherichia coli NIHJ) [µg/mL]	MIC [3] [µg/mL]	MIC [4] [µg/mL]	MIC (Micrococcus flavus D12) [µg/mL]	MIC [5] [µg/mL]	MIC [7] [µg/mL]	MIC (Escherichia coli JR88) [µg/mL]	MIC (Proteus morganii A9553) [µg/mL]	MIC [8] [µg/mL]	MIC (Proteus rettgeri A15167) [µg/mL]	MIC [14] [µg/mL]	MIC [15] [µg/mL]	MIC (Escherichia coli Juhl) [µg/mL]	MIC (Proteus mirabilis A9554) [µg/mL]	MIC [16] [µg/mL]	other results
NC[C@H]1O[C@H](O[C@H]2[C@H](O[C@@H]3O[C@H](CO)[C@@H](O)[C@H]3O)[C@@H](O)[C@H](N)C[C@@H]2N)[C@H](N)[C@@H](O)[C@@H]1O [Ribostamycin, ribostamycin]	> 100	1.6 (≈ 3.52 µM)	0.8 (≈ 1.76 µM)	3.1 (≈ 6.82 µM)	0.4 (≈ 0.88 µM)	0.4 (≈ 0.88 µM)	12.5 (≈ 27.5 µM)	3.1 (≈ 6.82 µM)	25 (≈ 55 µM)	1.6 (≈ 3.52 µM)	1.6 (≈ 3.52 µM)	100 (≈ 220 µM)	0.8 (≈ 1.76 µM)	6.3 (≈ 13.9 µM)	1.6 (≈ 3.52 µM)	6.3 (≈ 13.9 µM)	1.6 (≈ 3.52 µM)	3.1 (≈ 6.82 µM)	MIC (Escherichia coli A20107): > 100 µg/mL; MIC (Escherichia coli ML 1630): > 100 µg/mL; MIC [2]: > 100 µg/mL; MIC (Escherichia coli A20732): 1.6 µg/mL (≈ 3.52 µM); MIC [6]: > 100 µg/mL; MIC [9]: > 100 µg/mL; MIC [10]: > 100 µg/mL; MIC [11]: > 100 µg/mL; MIC [12]: > 100 µg/mL; MIC [13]: > 100 µg/mL; MIC [17]: > 100 µg/mL
NC[C@H]1O[C@H](O[C@H]2[C@H](O[C@@H]3O[C@H](CO)[C@@H](O[C@H]4O[C@H](CN)[C@@H](O)[C@H](O)[C@H]4N)[C@H]3O)[C@@H](O)[C@H](N)C[C@@H]2N)[C@H](N)[C@@H](O)[C@@H]1O [Neomycin C, neomycin C]	> 100	1.6 (≈ 2.6 µM)	1.6 (≈ 2.6 µM)	3.1 (≈ 5.04 µM)	0.4 (≈ 0.651 µM)	< 0.05	100 (≈ 163 µM)	1.6 (≈ 2.6 µM)	6.3 (≈ 10.2 µM)		3.1 (≈ 5.04 µM)	50 (≈ 81.3 µM)	1.6 (≈ 2.6 µM)	50 (≈ 81.3 µM)	0.8 (≈ 1.3 µM)	12.5 (≈ 20.3 µM)	3.1 (≈ 5.04 µM)	1.6 (≈ 2.6 µM)	
NC[C@H]1O[C@H](O[C@H]2[C@H](O)[C@@H](O)[C@H](N)C[C@@H]2N)[C@H](N)[C@@H](O)[C@@H]1O [Neamine, neamine]			6.3 (≈ 19.5 µM)	12.5 (≈ 38.8 µM)	12.5 (≈ 38.8 µM)	3.1 (≈ 9.62 µM)				12.5 (≈ 38.8 µM)		400 (≈ 1240 µM)			6.3 (≈ 19.5 µM)		25 (≈ 77.6 µM)	3.1 (≈ 9.62 µM)	
NC[C@H]1O[C@H](O[C@H]2[C@H](O[C@@H]3O[C@H](CO)[C@@H](O)[C@H]3O)[C@@H](O)[C@H](O)C[C@@H]2N)[C@H](N)[C@@H](O)[C@@H]1O [Bu-2659E, 1-deamino-1-hydroxyribostamycin]																			MIC [1, 19]: > 100 µg/mL; MIC (Proteus mirabilis A9906; [19]): 25 µg/mL (≈ 54.9 µM); MIC (Proteus vulgaris A9436; [19]): 12.5 µg/mL (≈ 27.4 µM); MIC (Escherichia coli NIHJ; [19]): 50 µg/mL (≈ 110 µM); MIC [3, 19]: 12.5 µg/mL (≈ 27.4 µM); MIC [4, 19]: 3.1 µg/mL (≈ 6.81 µM); MIC (Micrococcus flavus D12; [19]): > 100 µg/mL; MIC [5, 19]: 50 µg/mL (≈ 110 µM); MIC [7, 19]: > 100 µg/mL; MIC (Proteus morganii A9553; [19]): 25 µg/mL (≈ 54.9 µM); MIC [8, 19]: > 100 µg/mL; MIC (Proteus rettgeri A15167; [19]): 12.5 µg/mL (≈ 27.4 µM); MIC [14, 19]: > 100 µg/mL; MIC [15, 19]: 25 µg/mL (≈ 54.9 µM); MIC (Escherichia coli Juhl; [19]): > 100 µg/mL; MIC (Proteus mirabilis A9554; [19]): 12.5 µg/mL (≈ 27.4 µM); MIC [16, 19]: 50 µg/mL (≈ 110 µM); in vitro antibacterial activity, in words [18]: less active than components B and C
